The NIST ThermoML archive (doi:10.1021/acs.jced.5b00988)
“And” between values parts separate entries of the source, which are not always exact repeats. Identical values can stand only once. ± gives the expanded uncertainty stated by the source. Values belong to the compound of their own block, whether it stands above or below them.

Key:
[1] = Crystal; visual observation
[2] = wn = mass fraction of the nth substance listed; settings: 298.15 K, 102.5 kPa, Liquid; for viscosity: Concentric cylinders viscometry; for mass density: Vibrating tube method

SMILES: O=[PH2][O-].O=[PH2][O-].[Zn+2] [zinc(II) phosphinate]
Triple point temperature [1]: 446.15 ± 5 K

SMILES: O=[PH2][O-].[Na+] [sodium phosphinate] + O
viscosity ([2]; w1 = 0.5196): 17.6 ± 0.38 mPa·s
mass density ([2]; w1 = 0.5196): 1394 ± 3 kg/m3

viscosity ([2]; w1 = 0.2642): 1.5 ± 0.03 mPa·s and 1.7 ± 0.04 mPa·s
mass density ([2]; w1 = 0.2642): 1194 ± 2 kg/m3 and 1214 ± 2 kg/m3
SMILES: [Cl-].[Na+] [sodium chloride] + O

SMILES: O=[PH2][O-].O=[PH2][O-].[Zn+2] [zinc(II) phosphinate] + O
viscosity ([2]; w2 = 0.5196): 2.04 ± 0.04 mPa·s
mass density ([2]; w1 = 0.1861): 1157 ± 2 kg/m3
